According to patent US6603023B2 (priority 1996, dated 2003):
Structures can show the parent of a compound that is named as a salt. Where two headings read alike, the source gives them in different places.

Legend:
[1] = tested on: PC-3 Human Prostate Carcinoma; experiment: PC-3 xenograft; type: in vivo, nude mice; details: for Therapeutic effect Rank Order: PC-3; for Average Body Weight, Day 5: initial weight
SK-N-FI = experiment: cells; type: cell-based, human; details: Table 1C
Description: (§1) The drug-resistant cell lines were continuously cultured in the presence of the selecting agent, AD, DX, VBL or VM to maintain the drug resistant phenotypes. […] All cells were cultured in RPMI 1640-10% FBS at 37° C. 5% CO2 (see below).
The cytotoxicity of the drug toward the monolayer cell cultures (such as DC-3F, MCF-7, SK-N-As and sublines) was determined in 96-well microtiter plates by the SRB method as described by Skehan and co-workers (Skehan, P., et al., J. Natl. Cancer Inst. 1990, 82, 1107-1112) for measuring the cellular protein content. Cultures were fixed with trichloroacetic acid and then stained for 30 min with 0.4% suforhodamine B dissolved in 1% acetic acid. Unbound dye was removed by acetic acid washes, and the protein-bound dye was extracted with an unbuffered Tris base (tris(hydroxy-methyl)aminomethane) for determination of absorbance at 570 nm in a 96-well microtiter plate reader. The experiments were carried out in duplicate. Each run entailed six to seven concentrations of the tested drugs. Data were analyzed with the median-effect plot (Chou, T.-C. & Talalay, P. T. (1984) Adv. Enzyme Regul. 22, 27-55) using a previously described computer program (Chou, J., & Chou T.-C. 1987, Dose-effect analysis with microcomputers: Quantitation of ED50, synergism, antagonism, low-dose risk, reception-ligand binding and enzyme kinetics, IBM-PC software and manual, Biosoft, Cambridge, U.K.).

P388/Adr = experiment: cells; type: cell-based, murine; details: Table 1C
Description: as §1
(§2) The cells were cultured at an initial density of 5×10^4 cells/mL. They were maintained in a 5% CO2-humidified atmosphere at 37° C. in RPMI-1640 medium (GIBCO-BRL, Gaithersburg, Md.) containing penicillin (100 U/mL), streptomycin ([…]) (GIBCO-BRL) and 10% heat inactivate fetal bovine serum. Culture for cell suspension (such as for CCRF-CEM, P388 and sublines), were performed by the XTT-microculture tetrazonium method (Scudiero, D. A. et al., Cancer Res. 1988, 48, 4827-4833) in duplicate in 96-well microtiter plates.
(§3) 2′,3′-Bis(methoxy-4-nitro-5-sufophenyl)-5-[(phenylamino)carbonyl]2H-tetrazolium hyudroxide (XTT) was prepared at 1 mg/mL in prewarmed (37° C.) medium without serum. Phenazine methosulfate (PMS) and fresh XTT were mixed together to obtain 0.025 mM PMS-XTT solution (25 μL of the stock 5 mM PMS was added per 5 mL of 1 mg/mL XTT). Following a 72 h incubation, 50 μL of the assay aliquots were added to each well of the cell culture. After incubation at 37° C. for 4 h, absorbance at 450 nm and 630 nm was measured with a microplate reader (EL340, Bio-Tek Instruments, Inc., Winooski, Vt.).

[2] = tested on: DC-3F hamster lung fibroblast cell line; experiment: SRB cytotoxicity, DC-3F; type: cell-based
Summary of the method: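 Cellular protein content measured with sulforhodamine B after trichloroacetic acid fixation, read at 570 nm. Each duplicate run used six to seven concentrations, analysed by the median-effect method. Cells were cultured at 37 °C, 5% CO2 in RPMI 1640-10% FBS, and drug-resistant lines were maintained with their selecting agent.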

murine leukemic P388/0 = experiment: XTT cytotoxicity, P388/0; type: cell-based; details: Table 1C; XTT, 72 h; read-out: IC50
Description: The DC-3F hamster lung fibroblast cell line and its actinomycin D-selected sublines (DC-3F/ADII and DC-3F/ADX) were obtained from the Memorial Sloan-Kettering Cancer Center (MSKCC).
as §1, §2, §3

B16 Melanoma = type: in vivo, B6D2F1 mice
Description: Body weight was determined at 0, 2, 4, 6, 8, 10 and 12 days. […] Injections were started on day 1. […] Body weight was determined at 0, 2, 4, 6, 8, 10 and 12 days. […] Injections were started on day 1.

DC-3F/ADX = experiment: cells; type: cell-based, hamster
Summary of the method: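 Cell protein content measured by sulforhodamine B staining after trichloroacetic acid fixation, read at 570 nm; duplicate runs of six to seven concentrations fitted by median-effect analysis. Lines are actinomycin D-resistant DC-3F hamster lung sublines (ADII, ADX), kept under selecting drug in RPMI 1640-10% FBS.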

[3] = tested on: Human CCRF-CEM/VBL Xenograft; experiment: CCRF-CEM/VBL xenograft in scid mice; type: in vivo, CB-17 scid mice
[4] = 6 hr i.v. infusion: dEpoB 40, Taxol 24 mg/kg
[5] = PC-3 Prostate, dEpoB 40 mg/kg Q2D x 3, Taxol 15 mg/kg Q2D x 3
[6] = dEpoB 30 mg/kg 18 hr i.v. infusion, Taxol 16 mg/kg 6 hr infusion, VBL 2 and VP-16 25 mg/kg i.v. inj
[7] = dEpoB 50 mg/kg, 6 hr i.v. infusion
[8] = Table 1C, SRB, 72 h, read-out: IC50
[9] = dose 0.2 i.p. QD d7-10,14,15, day 12
[10] = dose 0.2 i.p. QD d7-10,14,15, day 17
[11] = dose 0.2 i.p. QD d7-10,14,15, day 22
[12] = dose 0.4 i.p. QD d7-10,14,15, day 12
[13] = dose 0.4 i.p. QD d7-10,14,15, day 17
[14] = dose 0.4 i.p. QD d7-10,14,15, day 22

## C/C1=C/C[C@@H](/C(C)=C/c2csc(C)n2)OC(=O)C[C@H](O)C(C)(C)C(=O)[C@H](C)[C@@H](O)[C@@H](C)CCC1 [Desoxyepothilone B, desoxyepothilone B]
[1]; [4]
  Average Body Weight (change), Day 9: -1.7 g
  Average Body Weight (change), Day 11: -3.4 g
  Average Body Weight (change), Day 13: -2.7 g
  Average Tumor Size (TC), Day 9: 0.40 TC
  Average Tumor Size (TC), Day 11: 0.19 TC
  Average Tumor Size (TC), Day 13: 0.12 TC
  Tumor Disappearance: 0/3
  Average Body Weight, Day 5: 28.3 g
[1]; i.v. infusion (order wraps over rows r24-r25)
  Therapeutic effect Rank Order: dEpoB >> VP-16
[1]; i.v./i.p. (order wraps over rows r11-r12)
  Therapeutic effect Rank Order: Taxol ® > dEpoB >>
[1]; [5]
  Lowest Average Tumor Size (T/C): 0.12 T/C
  Tumor Disappearance: 0
[1]; PC-3 Prostate, dEpoB 40 mg/kg Q2D x 3 vs Taxol 15 mg/kg Q2D x 3
  Therapeutic Effects dEpoB vs Taxol: <<
[1]; [6]
  Average Body Weight (change), Day 9: -2.2 g
  Average Body Weight (change), Day 11: -5.9 g
  Average Body Weight (change), Day 13: -5.8 g
  Average Tumor Size (TC), Day 9: 0.17 TC
  Average Tumor Size (TC), Day 11: 0.06 TC
  Average Tumor Size (TC), Day 13: 0.06 TC
  Tumor Disappearance: 0/3
  Average Body Weight, Day 5: 29.4 g
[1]; [7]
  Average Body Weight (change), Day 9: -2.1 g
  Average Body Weight (change), Day 11: -3.0 g
  Average Body Weight (change), Day 13: -2.6 g
  Average Tumor Size (TC), Day 9: 0.37 TC
  Average Tumor Size (TC), Day 11: 0.13 TC
  Average Tumor Size (TC), Day 13: 0.03 TC
  Tumor Disappearance: 0/3
  Average Body Weight, Day 5: 28.1 g
SK-N-FI; SK-N-FI vs SK-N-As
  folds of resistance (IC50 ratio vs parent cell line): (2.2x)
SK-N-FI; SRB, 72 h, read-out: IC50
  IC50: 46 nM
P388/Adr; P388/Adr vs P388/O
  folds of resistance (IC50 ratio vs parent cell line): (0.62x)
P388/Adr; XTT, 72 h, read-out: IC50
  IC50: 4.2 nM
[2]; [8]
  IC50: 0.97 nM
Murine leukemic P388/0
  IC50: 6.8 nM
B16 Melanoma; 20 mg/kg QD1-4,7-8, day 11
  Average Tumor Volume (T/C): 0.33
B16 Melanoma; 20 mg/kg QDx6 from day 1 (FIG. 44)
  mice died: 0 of 8
DC-3F/ADX; DC-3F/ADX cells
  fold resistance vs parent DC-3F: 0.9 fold
DC-3F/ADX; Table 1C, DC-3F/ADX vs DC-3F
  folds of resistance (IC50 ratio vs parent cell line): (0.9x)
DC-3F/ADX; [8]
  IC50: 0.91 nM

## CC[C@]1(O)C[C@@H]2CN(CCc3c([nH]c4ccccc34)[C@@](C(=O)OC)(c3cc4c(cc3OC)N(C)[C@H]3[C@@](O)(C(=O)OC)[C@H](OC(C)=O)[C@]5(CC)C=CCN6CC[C@]43[C@@H]65)C2)C1 [Vinblastine, Vinblastine sulfate]
[1]; [6]
  Average Body Weight (change), Day 9: +1.4 g
  Average Body Weight (change), Day 11: +2.1 g
  Average Body Weight (change), Day 13: +3.0 g
  Average Tumor Size (TC), Day 9: 0.37 TC
  Average Tumor Size (TC), Day 11: 0.13 TC
  Average Tumor Size (TC), Day 13: 0.03 TC
  Tumor Disappearance: 1/3
  Average Body Weight, Day 5: 23.5 g
[2]; Mesocricetus auratus, DC3F, Table 3
  IC50: 2.65 nM
[3]; dose 0.2 i.p. QD d7-10,14,15, day 7
  Average weight change: −0.3
[3]; [9]
  Average tumor volume (control = 1.00): 0.86
  Average weight change: −0.8
[3]; [10]
  Average tumor volume (control = 1.00): 0.66
  Average weight change: −1.4
[3]; [11]
  Average tumor volume (control = 1.00): 0.67
  Average weight change: −0.3
[3]; dose 0.4 i.p. QD d7-10,14,15, day 7
  Average weight change: 0
[3]; [12]
  Average tumor volume (control = 1.00): 1.02
  Average weight change: −1.2
[3]; [13]
  Average tumor volume (control = 1.00): 0.57
  Average weight change: −1.8
[3]; [14]
  Average tumor volume (control = 1.00): 0.62
  Average weight change: −0.5
DC-3F/ADX; DC3F/ADX, Table 3
  IC50: 1070 nM
